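Method: 48-hour compound exposure of cells in 96-well plates, five concentrations, linear interpolation of endpoints. At the GI50, growth is halved.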 The source made the active and inactive calls. Rule as the data show it: active = GI50 up to about 1.1 µM and inactive = higher.
Key:
Experiment in all cases: NCI anticancer screen, dose series, 48 h
SNB-75 = tested on: SNB-75
ACHN = tested on: ACHN
NCI-H522 = tested on: NCI-H522
NCI-H23 = tested on: NCI-H23
OVCAR-8 = tested on: OVCAR-8
SW-620 = tested on: SW-620
RXF 393 = tested on: RXF 393
PC-3 = tested on: PC-3
HCC 2998 = tested on: HCC 2998
BT-549 = tested on: BT-549
786-0 = tested on: 786-0
MCF7 = tested on: MCF7
SK-MEL-2 = tested on: SK-MEL-2
KM12 = tested on: KM12
SR = tested on: SR
MDA-MB-435 = tested on: MDA-MB-435
NCI/ADR-RES = tested on: NCI/ADR-RES
SK-OV-3 = tested on: SK-OV-3
M14 = tested on: M14

Measured: GI50

Cc1ccc(/C=C2\Cc3cc(C)c(C)cc3C2=O)c(C(=O)O)c1
inactive: SNB-75 30.3 µM | ACHN 46.3 µM | NCI-H522 22.1 µM | NCI-H23 > 10 µM | OVCAR-8 43.5 µM | SW-620 34.6 µM | RXF 393 28.2 µM | PC-3 22.3 µM | HCC 2998 26.1 µM | BT-549 16.3 µM | 786-0 40.2 µM | MCF7 24.7 µM | SK-MEL-2 45.6 µM | KM12 35.8 µM | SR 52.2 µM

Cc1ccc(-c2cc(-c3c(C)nn(C)c(=O)c3N)n[nH]2)cc1
inactive: MDA-MB-435 > 100 µM | ACHN > 100 µM | NCI/ADR-RES > 100 µM | SK-OV-3 > 100 µM | NCI-H23 > 100 µM | OVCAR-8 > 100 µM | SW-620 > 100 µM | RXF 393 > 100 µM | PC-3 > 100 µM | HCC 2998 > 100 µM | 786-0 > 100 µM | M14 > 100 µM | MCF7 > 100 µM | SK-MEL-2 > 100 µM | KM12 > 100 µM | SR > 100 µM

O=C1NC2c3c(I)sc(I)c3/C(=N\O)C2O1 (stereo not given)
inactive: MDA-MB-435 26.5 µM | SNB-75 59.6 µM | ACHN 17 µM | NCI/ADR-RES 20.4 µM | SK-OV-3 34.5 µM | NCI-H23 23.2 µM | OVCAR-8 18.4 µM | SW-620 19 µM | RXF 393 12.7 µM | PC-3 39.2 µM | HCC 2998 35.1 µM | 786-0 24.4 µM | M14 36.8 µM | MCF7 33.8 µM | SK-MEL-2 63.7 µM | KM12 30.1 µM | SR 29.9 µM

CC(=O)[C@@]1(C)CC2(CCN(C)CC2)OC1C (stereo not given in full)
inactive: MDA-MB-435 > 100 µM | SNB-75 > 100 µM | ACHN > 100 µM | NCI/ADR-RES > 100 µM | SK-OV-3 > 100 µM | NCI-H522 > 100 µM | NCI-H23 > 100 µM | OVCAR-8 > 100 µM | SW-620 > 100 µM | RXF 393 > 100 µM | BT-549 > 100 µM | 786-0 > 100 µM | M14 > 100 µM | KM12 > 100 µM

O=C1[C@H](Cl)[C@H]2c3cc4ccccc4nc3Oc3ccccc3N12
inactive: SNB-75 1.4 µM | ACHN 28.4 µM | SK-OV-3 45.5 µM | NCI-H522 24.3 µM | NCI-H23 35.1 µM | OVCAR-8 51.3 µM | SW-620 > 100 µM | HCC 2998 39.4 µM | 786-0 36.8 µM | M14 76.9 µM | SK-MEL-2 36.5 µM | KM12 33.3 µM | SR 20.9 µM
